From US20110245284A1, “Alkoxy- and Alkylthio-Substituted Anilinopyrimidines” (Bayer CropScience AG, priority 2008, published 2011)

Experiments:
Venturia inaequalis = assay: Venturia test (apple) / protective; type: in vivo; details: 240 h, active compound concentration 100 ppm, evaluation 10 days after inoculation, read-out: efficacy
Procedure: After the spray coating has dried on, the plants are inoculated with an aqueous conidia suspension of the apple scab pathogen Venturia inaequalis and then remain for 1 day in an incubation cabinet at about 20° C. and 100% relative atmospheric humidity.

[1] = logP by LC-MS on reversed-phase columns (C 18), method [c], neutral range pH 7.8; type: physicochemical; details: pH 7.8
Procedure: (§1) The logP values were determined in accordance with EEC Directive 79/831 Annex V.A8 by HPLC (High Performance Liquid Chromatography) on reversed-phase columns (C 18), using the methods below:
[c] The LC-MS determination in the neutral range is carried out at pH 7.8 using the mobile phases 0.001 molar aqueous ammonium bicarbonate solution and acetonitrile, linear gradient from 10% acetonitrile to 95% acetonitrile.

Alternaria solani = assay: Alternaria test (tomato) / protective; type: in vivo; details: 72 h, active compound concentration 100 ppm, evaluation 3 days after inoculation, read-out: efficacy
Procedure: The plants are then placed in an incubation cabinet at about 20° C. and 100% relative atmospheric humidity.

Leptosphaeria nodorum = Leptosphaeria nodorum test (wheat) / protective; type: in vivo; details: Parastagonospora nodorum, active compound concentration 500 ppm, evaluation 7-9 days after inoculation, read-out: efficacy
Procedure: Thereafter, the plants are placed in a greenhouse at 90% relative atmospheric humidity and a temperature of 22° C.

Pyrenophora teres = Pyrenophora teres test (barley) / protective; type: in vivo; details: 192 h, active compound concentration 500 ppm, evaluation 8 days after inoculation, read-out: efficacy
Procedure: After the spray coating has dried on, the plants are sprayed with a spore suspension of Pyrenophora teres. The plants remain in an incubation cabinet for 48 hours at 20° C. and 100% relative atmospheric humidity.

Sphaerotheca fuliginea = assay: Sphaerotheca test (cucumber) / protective; type: in vivo; details: Podosphaera fuliginea, 168 h, active compound concentration 500 ppm, evaluation 7 days after inoculation, read-out: efficacy
Procedure: The plants are subsequently placed in a greenhouse at 70% relative atmospheric humidity and a temperature of 23° C.

[2] = logP by LC-MS on reversed-phase columns (C 18), method [b], acidic range pH 2.7; type: physicochemical; details: pH 2.7, log p
Procedure: as §1
[b] The LC-MS determination in the acidic range is carried out at pH 2.7 using the mobile phases 0.1% aqueous formic acid and acetonitrile (contains 0.1% formic acid), linear gradient from 10% acetonitrile to 95% acetonitrile.

Cochliobolus miyabeanus = assay: Cochliobolus test (rice) / protective; details: Bipolaris oryzae, in Oryza sativa, 96 h, read-out: efficacy
Procedure: Cochliobolus Test (Rice)/Protective • Solvent: 28.5 parts by weight of acetone • Emulsifier: 1.5 parts by weight of alkylaryl polyglycol ether
1 day after the treatment, the plants are inoculated with an aqueous spore suspension of Cochliobolus miyabeanus. The plants are then placed in a greenhouse at 100% relative atmospheric humidity and 25° C.
Evaluation is carried out 4 days after the inoculation.

Pyricularia oryzae = assay: whole plant or invertebrate; type: in vivo; details: 120 h, read-out: efficacy
Rhizoctonia solani = assay: Rhizoctonia test (rice) / protective; type: in vivo; details: 96 h, active compound concentration 250 ppm, evaluation 4 days after inoculation, read-out: efficacy

Structure (SMILES) | pest or weed control at 100 ppm (Venturia inaequalis) [%] | chromatographic logP [1] | pest or weed control at 100 ppm (Alternaria solani) [%] | pest or weed control at 500 ppm (Leptosphaeria nodorum) [%] | pest or weed control at 500 ppm (Pyrenophora teres) [%] | pest or weed control at 500 ppm (Sphaerotheca fuliginea) [%] | chromatographic logP [2] | pest or weed control at 250 ppm (Cochliobolus miyabeanus) [%] | pest or weed control at 250 ppm (Pyricularia oryzae) [%] | pest or weed control at 250 ppm (Rhizoctonia solani) [%]
CCC[S+]([O-])c1cccc(Nc2ncc(Cl)c(NC3CC3)n2)c1 (centres unmarked) [Example 205] | ≥ 70 | 2.47 | ≥ 70 | ≥ 70 | ≥ 70 | ≥ 70 | 1.8 | – | – | –
COCCOc1ccc(Nc2ncc(C(F)(F)F)c(NC3CC3)n2)cc1 [Example 82] | – | 3.06 | – | ≥ 70 | ≥ 70 | – | 2.3 | ≥ 80 | ≥ 80 | –
CCC[S+]([O-])c1cccc(Nc2ncc(C(F)(F)F)c(NC3CCC3)n2)c1 (centres unmarked) [Example 35] | ≥ 70 | – | ≥ 70 | ≥ 70 | – | ≥ 70 | 2.97 | – | – | –
COCc1cccc(Nc2ncc(Cl)c(NC3CCCC3)n2)c1 [Example 7] | – | – | – | ≥ 70 | – | – | 2.23 | ≥ 80 | – | ≥ 80
CCNc1nc(Nc2cccc(COC)c2)ncc1Cl [Example 95] | – | 2.84 | – | ≥ 70 | – | – | 1.47 | ≥ 80 | ≥ 80 | –
CCCCS(=O)(=O)c1cccc(Nc2ncc(Br)c(NC3CC3)n2)c1 [Example 125] | ≥ 70 | 3.32 | ≥ 70 | ≥ 70 | – | – | 2.81 | – | – | –
CCCC[S+]([O-])c1cccc(Nc2ncc(Cl)c(NC3CCC3)n2)c1 (centres unmarked) [Example 171] | ≥ 70 | 3.31 | ≥ 70 | ≥ 70 | – | – | 2.48 | – | – | –
COCc1cccc(Nc2ncc(Cl)c(NC3CC3C)n2)c1 (centres unmarked) [Example 65] | ≥ 70 | 3.3 | ≥ 70 | ≥ 70 | – | – | 2.03 | – | – | –
CSC(C)c1cccc(Nc2ncc(Cl)c(NC3CCC3)n2)c1 (centres unmarked) [Example 14] | ≥ 70 | – | ≥ 70 | ≥ 70 | ≥ 70 | – | 2.82 | – | ≥ 80 | ≥ 80
CCCSc1cccc(Nc2ncc(C(F)(F)F)c(NC3CC3)n2)c1 [Example 109] | – | – | – | ≥ 70 | – | ≥ 70 | 4.44 | ≥ 80 | ≥ 80 | ≥ 80
CCC(C)S(=O)(=O)C(C)c1cccc(Nc2ncc(Cl)c(NC3CC3)n2)c1 (centres unmarked) [Example 163] | ≥ 70 | 3.16 | ≥ 70 | ≥ 70 | ≥ 70 | ≥ 70 | 2.16 | – | – | –
CCC(C)SC(C)c1cccc(Nc2ncc(Cl)c(NC3CC3)n2)c1 (centres unmarked) [Example 133] | ≥ 70 | 5.08 | ≥ 70 | ≥ 70 | ≥ 70 | ≥ 70 | 3.79 | – | – | –
CCCCSc1cccc(Nc2ncc(C(F)(F)F)c(NC3CC3)n2)c1 [Example 107] | – | – | – | ≥ 70 | – | – | 4.94 | ≥ 80 | ≥ 80 | ≥ 80
CCC(c1cccc(Nc2ncc(Cl)c(NC3CC3)n2)c1)S(=O)(=O)CC (centres unmarked) [Example 120] | ≥ 70 | 2.83 | ≥ 70 | ≥ 70 | – | ≥ 70 | 1.94 | – | – | –
CCCCSc1cccc(Nc2ncc(Br)c(NC3CC3)n2)c1 [Example 105] | – | 4.99 | – | ≥ 70 | – | – | 4 | ≥ 80 | ≥ 80 | ≥ 80
